Molecules are shown by their SMILES. Where two headings read alike, the source gives them in different places.

This assay deals with IFN-γ production in human peripheral blood mononuclear cells (PBMCs). As to the kind of experiment: Experiment 2: IFN-γ production by PHA-stimulated human PBMCs, ELISA. It is filed as cell-based. The settings on record: for [IFN-γ]: PHA 5 μg/ml; for inhibition of IFN-γ production in PBMCs (in words): Experiment 2, human PBMCs; for IC50: human PBMCs, PHA-stimulated, read-out: IC50 (concentration to inhibit IFN-γ production by 50%). As to the method: A similar set of tests were carried out, in which three compounds known as CEN-079(3,5-diamino-6-[2-(3,4,5-trichlorothienyl)]-1,2,4-triazine), CEN-092(3,5-diamino-6-(3,5-bistrifluoromethylphenyl)-1,2,4-triazine) and CEN-216(3,5-diamino-6-(2,3-dichlorophenyl)-2,3(2,5)-dihydro-3(5)-imino-2-(2,2,2-trichloroethyl)-1,2,4-triazine) were compared with lamotrigine. CEN-079, CEN-092 and CEN-216 are within the scope of Formulae 1, 2 and 3.
50 ml of blood from three healthy adult donors was collected by venepuncture in heparinised tubes. The blood samples where centrifuged at 3000 rpm for 15 minutes. The supernatant plasma was collected in a centrifuge tube, and centrifuged at 3000 rpm for a further 10 minutes. The supernatant was then collected in a plain tube, and stored at −70° C. for future use.
The cells from the first centrifuged heparinised tube were diluted 1:1 in RPMI-1640, and mixed by multiple inversions. The cell mixture was then slowly layered, using a sterile plastic 3 ml pipette, along a tube wall containing lymphoprep (Nycomed) at a ratio of 2:1 cells/RPMI-1640:Lymphoprep in a 25 ml universal tube. The mixture was centrifuged at 2400 rpm for 30 minutes, and left to stand for 20 minutes. PBMCs were slowly removed from the interface using a sterile plastic pipette, and collected in a 15 ml centrifuge tube.
The cells were washed twice by diluting in RPMI-1640 with 2 mM L-glutamine, 100 U/ml penicillin and 100 μg/ml streptomycin at a ratio of 1:1. The mixture was centrifuged at 3000 rpm for 15 minutes, and the supernatant decanted. PBMCs were then diluted in RPMI-1640 containing 2 mM L-glutamine, 100 U/ml penicillin and 100 μg streptomycin, to make up a volume of 6 ml for subjects 1 and 2, and 9 ml for subject 3.
Cells were counted using an Improved Neubauer haemocytometer (Hawksley, UK) on a light microscope. 10 μl of cell suspension was loaded onto the haemocytometer using a sterile plastic pipette. Cells were counted in five out of 25 1 mm squares, from which the total cell count was calculated.
5 μg/ml PHA was used as a T cell activating agent for the production of IFN-γ. The PBMCs were treated with the four test compounds (lamotrigine, CEN-079, CEN-092, CEN-216) at concentrations of 10 μM, 30 μM and 300 μM to assess their effects on IFN-γ production by the stimulated T cells.
The tests were carried out as for Experiment 1, in which 2×10^6 PBMC/ml, 25 μl of 5% autologous plasma, and 2.63 μl of 5 μg/ml PHA were used. Test compound at each concentration was then added, except for one control case.
10 μM solutions were obtained by adding 1.05 μl of a 5 mM solution of the compounds to the above PBMC-containing solution. 30 μM solutions were obtained by adding 3.15 μl of the 5 mM solution of the compounds. 300 μM solutions were obtained by adding […] solutions of the compounds.
The tubes were covered, gently shaken to mix the contents, and incubated for 24 hours at 37° C. The tubes were then centrifuged at 2500 rpm for 10 minutes. The supernatant was collected in a 3 ml plastic pipette, and aliquots were stored at −70° C. before being analysed.
The test was performed according to the supplier's instructions. Donor samples were diluted 1:1 in phosphate buffered […] (PBS) and assayed simultaneously with IFN-γ standard samples, in duplicate. The standard curve ranged from 15.6 pg/ml to 1000 pg/ml.
A 96-well multiwell microplate (high binding Costar) was prepared, by diluting a capture antibody (720 μg/ml of mouse anti-human IFN-γ) in PBS to a working concentration of 4.0 μg/ml. 100 μl was immediately coated on each well, and left overnight at room temperature. The wells were washed three times in wash buffer, using microplate autowasher (LT-3000, LabTech International Ltd). The remainder of the wash buffer in the wells was removed by blotting on to clean paper towels. The plate was blocked by adding 300 μl Block buffer (1% BSA in PBS) to each well and incubated at room temperature for 1 hour. […]
On the technique in general: ELISA stands for enzyme-linked immunosorbent assay.

On to `Nc1nnc(-c2sc(Cl)c(Cl)c2Cl)c(N)n1` [CEN-079, 3,5-diamino-6-[2-(3,4,5-trichlorothienyl)]-1,2,4-triazine], for which the “inhibition of IFN-γ production in PBMCs (in words)” value (from here on “inhibition of IFN-γ production”) was “significantly more effective inhibitors compared to lamotrigine” and the IC50 is 6 µM. For the same compound, under “10 μM, Subject 1, 24 h”, the “[IFN-γ] vs control” value is given as 22.1% and the “[IFN-γ]” value turned out to be 154.5 pg/mL. Further, for the setting “10 μM, Subject 2, 24 h”, the “[IFN-γ] vs control” value came to 36.9% and the “[IFN-γ]” value was found to be 757.5 pg/mL. Where the note is “10 μM, Subject 3, 24 h”, the “[IFN-γ] vs control” value was 28.7% and the “[IFN-γ]” value is 611.5 pg/mL. Further, where the note is “30 μM, Subject 1, 24 h”, the “[IFN-γ] vs control” value was found to be 7.60% and the “[IFN-γ]” value was determined as 53 pg/mL. Under “30 μM, Subject 2, 24 h”, the “[IFN-γ] vs control” value came to 1.80% and the “[IFN-γ]” value is 178.5 pg/mL. Further, under “30 μM, Subject 3, 24 h”, the “[IFN-γ] vs control” value stood at 2.0% and the “[IFN-γ]” value came out at 41.5 pg/mL. For the same compound, for the setting “300 μM, Subject 1, 24 h”, the “[IFN-γ] vs control” value worked out at 0.0% and the “[IFN-γ]” value turned out to be 0.00 pg/mL. Also, where the note is “300 μM, Subject 2, 24 h”, the “[IFN-γ] vs control” value is listed as 0.0% and the “[IFN-γ]” value came to 0.0 pg/mL. Moreover, under “300 μM, Subject 3, 24 h”, the “[IFN-γ] vs control” value worked out at 0.0% and the “[IFN-γ]” value was determined as 0.0 pg/mL.
On to `Nc1nnc(-c2cc(C(F)(F)F)cc(C(F)(F)F)c2)c(N)n1` [CEN-092, 3,5-diamino-6-(3,5-bistrifluoromethylphenyl)-1,2,4-triazine], for which the “inhibition of IFN-γ production” value is listed as “significantly more effective inhibitors compared to lamotrigine”. Further, where the note is “10 μM, Subject 1, 24 h”, the “[IFN-γ] vs control” value was 16.1% and the “[IFN-γ]” value amounted to 112.5 pg/mL. Moreover, where the note is “10 μM, Subject 2, 24 h”, the “[IFN-γ] vs control” value is listed as 36.0% and the “[IFN-γ]” value amounted to 728.5 pg/mL. Also, where the note is “10 μM, Subject 3, 24 h”, the “[IFN-γ] vs control” value turned out to be 19.9% and the “[IFN-γ]” value stood at 423.5 pg/mL. Further, where the note is “30 μM, Subject 1, 24 h”, the “[IFN-γ] vs control” value worked out at 7.4% and the “[IFN-γ]” value is 52.0 pg/mL. Moreover, where the note is “30 μM, Subject 2, 24 h”, the “[IFN-γ] vs control” value was found to be 24.6% and the “[IFN-γ]” value came to 499.0 pg/mL. Besides, for the setting “30 μM, Subject 3, 24 h”, the “[IFN-γ] vs control” value is recorded as 4.3% and the “[IFN-γ]” value came out at 91.5 pg/mL. Where the note is “300 μM, Subject 1, 24 h”, the “[IFN-γ] vs control” value is 0.0% and the “[IFN-γ]” value was 0.00 pg/mL. In addition, where the note is “300 μM, Subject 2, 24 h”, the “[IFN-γ] vs control” value was determined as 0.0% and the “[IFN-γ]” value amounted to 0.0 pg/mL. For the setting “300 μM, Subject 3, 24 h”, the “[IFN-γ] vs control” value is 6.9% and the “[IFN-γ]” value was 146.0 pg/mL. Further, the IC50 (PBMC) worked out at 3 µM.
Take `N=c1nc(N)c(-c2cccc(Cl)c2Cl)nn1CC(Cl)(Cl)Cl` [CEN-216, 5(3)-Amino-6-(2,3-dichlorophenyl)-2,3(2,5)-dihydro-3(5)-imino-2-(2,2,2-trichloroethyl)-1,2,4-triazine]: the “inhibition of IFN-γ production” value is recorded as “significantly more effective inhibitors compared to lamotrigine”. Moreover, for the setting “10 μM, Subject 1, 24 h”, the “[IFN-γ] vs control” value turned out to be 0.0% and the “[IFN-γ]” value amounted to 0.00 pg/mL. Further, where the note is “10 μM, Subject 2, 24 h”, the “[IFN-γ] vs control” value stood at 9.2% and the “[IFN-γ]” value was determined as 187.0 pg/mL. Moreover, under “10 μM, Subject 3, 24 h”, the “[IFN-γ] vs control” value was 3.9% and the “[IFN-γ]” value worked out at 82.0 pg/mL. Besides, for the setting “30 μM, Subject 1, 24 h”, the “[IFN-γ] vs control” value was 0.0% and the “[IFN-γ]” value stood at 0.00 pg/mL. Besides, under “30 μM, Subject 2, 24 h”, the “[IFN-γ] vs control” value is 2.9% and the “[IFN-γ]” value was 59.0 pg/mL. Besides, for the setting “30 μM, Subject 3, 24 h”, the “[IFN-γ] vs control” value is listed as 5.7% and the “[IFN-γ]” value is 122.0 pg/mL. Moreover, for the setting “300 μM, Subject 1, 24 h”, the “[IFN-γ] vs control” value is 0.0% and the “[IFN-γ]” value was 0.00 pg/mL. Where the note is “300 μM, Subject 2, 24 h”, the “[IFN-γ] vs control” value was 0.0% and the “[IFN-γ]” value stood at 0.0 pg/mL. Besides, for the setting “300 μM, Subject 3, 24 h”, the “[IFN-γ] vs control” value worked out at 0.0% and the “[IFN-γ]” value turned out to be 0.0 pg/mL.

(Values after US10576086B2, “Triazine derivatives as interferon-gamma inhibitors” (University of Greenwich, priority 2015, dated 2020).)
